{
  "source": "patent US9822128B1",
  "about": "“Substituted spirooxindoles” (KING SAUD UNIVERSITY, priority 2017, dated 2017)",
  "key": {"[1]": {"test_system": "HCT-116 cells", "test": "Colony forming assay", "format": "cell-based, human", "settings": "HCT-116, 2 μM (method) / 1 μM (result sentence), 10 days, vs DMSO control", "description": "HCT-116 cells were seeded in 35 mm cell culture dish (500 cells/ml, 2 ml/dish). After overnight incubation at 37° C. and 5% CO2, the medium was replaced with fresh medium containing either DMSO or 2 μM of 4d. The dishes were returned into the incubator and watched for the formation of single colonies. After 10 days, the experiment was stopped by washing the colonies by ice-cold 1×-PBS and fixed with ice-cold methanol. The colonies were left to air dry, then stained with 0.5% crystal violet. The excess stain was washed off by tap water. The colonies were counted by Gx microscopes (GXMGXD202 Inverted Microscope) (10× Eyepiece) and images were processed by ImageJ 1.47v. The effect of compound 4d on the colony formation of colon cancer cells was evaluated by incubating the cells with 1 μM. […] This confirms the ability of compound 4d to enhance tumor suppressor activities."}, "[2]": {"test_system": "HepG2", "test": "MTT cytotoxicity assay, hepatocellular carcinoma cells", "format": "cell-based, human", "settings": "for IC50: Homo sapiens, HepG2, MTT, 48 hrs incubation", "description": "(§1) The cytotoxic activity of the compounds was tested against different mammalian cancer cells, prostate carcinoma cells (PC-3), hepatocellular carcinoma (HepG2) and colon cancer cells (HCT-116) and against African green monkey kidney cell line (Vero-B). The cell lines were obtained from American Type Culture Collection (ATCC). The cells were cultivated at 37° C. and 10% CO2 in DMEM (Lonza, 12-604F) medium supplemented with 10% fetal bovine serum (FBS, Lonza, Cat. No. 14-801E), 100 IU/ml penicillin and 100 μg/ml streptomycin (Lonza, 17-602E). Cisplatin (cis-diamineplatinum (II) dichloride) was used as a positive control and was obtained from Sigma then dissolved in 0.9% saline then stored as 8 mM stock solution at −20° C. The synthesized compounds were solubilized in DMSO and stored at −20° C. 0.5% crystal violet was prepared in Methanol and was used to stain the viable cells (Feoktistova, Geserick et al. 2016). Crystal violet binds to proteins and DNA in the adherent and viable cells so the stain is an indicator for the viability of the treated cells. The viability of the cells were quantified by using MTT reagent (3-(4,5-dimethylthiazol-2-yl)-2,5-diphenyl tetrazolium bromide), which measure the activity of mitochondrial dehydrogenase in the viable cells (Slater, Sawyer et al. 1963, Mosmann 1983).\n(§2) Cytotoxicity was further assayed as follows. The cells were seeded in 96-well plate as 5*10^4 cells/mL (100 μL/well). A serial dilutions of tested compounds or cisplatin (100, 30, 10, 3.3, 1.1 or 0.37 μM) was added after overnight incubation of the cells at 37° C. and 5% CO2. DMSO was used as a control (0.1%). The cells were incubated for 48 hrs. After that, 15 μl of MTT (5 mg/mL PBS) was added to each well and incubated for another 4 hours. The formazan crystals were solubilized by 100 μL acidified SDS solution (10% SDS/0.01 M HCl). The absorbance was measured after 14 hours of incubation at 37° C. and 5% CO2 at 570 nm by Biotech plate reader. Each experiment was repeated three times and standard deviation was calculated (±). IC50% was calculated as the concentration that cause 50% inhibition for cell growth. The growth of the cells were monitored and the images were acquired by Gx microscopes (GXMGXD202 Inverted Microscope) (10× Eyepiece) after staining with crystal violet."}, "[3]": {"test_system": "HCT-116 cells", "test": "Induction of apoptosis (annexin-V / 7-AAD flow cytometry)", "format": "cell-based, human", "description": "The HCT-116 cells were seeded at 5*10^4 cells/mL density in a 6-well plate. The cells were treated with 2 μM 4d for 48 hrs, and the cells were collected after trypsin enzyme treatment and washed two times with ice-cold 1×PBS. The cells were incubated for 2 hours at 4° C. in PBS, then centrifuged and re-suspended in 1× binding buffer. Then 5 μL PE annexin-V and 5 μL 7-amino-actinomycin D (7-AAD) were added to 100 μL of cell suspension and incubated for 15 min at RT in the dark, and then 400 μL of 1× binding buffer was added to the cell suspension and analyzed within 1 hour by BD Accuri™ C6 Plus flow cytometer. The following controls were used to set up the machine: cells unstained with PE annexin V and 7-AAD, cells stained with PE annexin V only, cells stained with 7-AAD only. The level of apoptotic cells, whether in early (+ve annexin-V and −ve PI) or late stage (+ve Annexin-V and +ve PI), was determined. […] The results are shown in FIG. 5A (untreated cells) and FIG. 5B (treated with just 1 μM of compound 4d for 24 hours)."}, "[4]": {"test_system": "Vero-B", "test": "MTT cytotoxicity assay, normal kidney cell line", "format": "cell-based, African green monkey", "settings": "Chlorocebus sabaeus, Vero B; Table 1; MTT, 48 hrs incubation; read-out: VERO-B (IC50% μM)", "description": "as §1, §2"}, "[5]": {"test_system": "p53 in HCT-116 (wt p53) cells", "test": "p53 activation, p53 protein level by flow cytometry", "format": "cell-based, human", "settings": "for shift in fluorescence (p53 antibody): 48 hours, untreated 23%", "description": "The determination of p53 protein level by flow cytometry was applied because it measures the level in a single cell and determines the heterogeneity of expression within a population of cells. HCT-116 (wt p53) cells were seeded at 5*10^4 cells/mL density in a 6-well plate (2 ml/well). The cells were treated with 1 or 2 μM of compound 4d for 48 hrs, and the cells were collected after trypsin enzyme treatment and washed two times with ice-cold 1×PBS. The cells were fixed with 4% paraformaldehyde for fixation and permeabilization, then washed one time with 1× ice-cold PBS and one time with PBS containing 2% FBS. Then an aliquot of the cells was incubated with an anti-p53 antibody for one hour, and then washed two times with PBS. After that, the same cells were stained with PI (propidium iodide). […] In order to confirm the effect of compound 4d on the activation of p53, we incubated the colon cancer cells with 2 μM of compound 4d, and after 24 hours, the cells were stained with the antibody against p53. […] See FIGS. 6B (1 μM treatment with compound 4d for 48 hours; 52.7% shift in fluorescence) and 6C (2 μM treatment with compound 4d for 48 hours; 60.1% shift in fluorescence) compared to FIG. 6A (untreated cancer cells; 23% shift in fluorescence)."}, "[6]": {"test_system": "HCT-116", "test": "MTT cytotoxicity assay, colon cancer cells", "format": "cell-based, human", "settings": "for IC50: Homo sapiens, HCT-116, MTT, 48 hrs incubation", "description": "as §1, §2"}},
  "note": "Read-outs that look alike come from different tables or passages of the source.",
  "data": [
    {"smiles": "O=C(/C=C/c1ccc(Cl)cc1Cl)[C@H]1[C@H](c2ccc(Cl)cc2Cl)[C@H]2CSCN2[C@]12C(=O)Nc1ccccc12", "note": "[Compound 4d, (3R,6′S,7′R,7a′S)-7′-(2,4-dichlorophenyl)-6′-((E)-3-(2,4-dichlorophenyl)acryloyl)-1′,6′,7′,7a′-tetrahydro-3′H-spiro[indoline-3,5′-pyrrolo[1,2-c]thiazol]-2-one]", "values": [
      {"measurement": "formation of colonies", "setting": "[1]", "result": "able to inhibit the formation of colonies"},
      {"measurement": "IC50", "setting": "[2]; read-out: HepG2 (IC50% μM)", "result": "0.85 ± 0.2", "unit": "µM"},
      {"measurement": "IC50", "setting": "[2]; read-out: HepG2 (IC50% μg/ml)", "result": 0.5, "unit": "µg/mL"},
      {"measurement": "SI", "setting": "[2]; Selectivity Index from IC50 normal (VERO-B) and IC50 cancer (HepG2)", "result": 5.882},
      {"measurement": "induction of apoptosis", "setting": "[3]; HCT-116, 1 μM, 24 hours", "result": "could induce the apoptosis"},
      {"measurement": "apoptotic cells", "setting": "[3]; HCT-116, 2 μM, 48 hours", "result": "greatly increased the apoptotic cells"},
      {"measurement": "IC50", "setting": "[4]", "result": 5, "unit": "µM"},
      {"measurement": "shift in fluorescence (p53 antibody)", "setting": "[5]; HCT-116, 1 μM", "result": 52.7, "unit": "%"},
      {"measurement": "shift in fluorescence (p53 antibody)", "setting": "[5]; HCT-116, 2 μM", "result": 60.1, "unit": "%"},
      {"measurement": "cell population positive for p53", "setting": "[5]; colon cancer cells, 2 μM, 24 hours", "result": "significant increase"},
      {"measurement": "IC50", "setting": "[6]; read-out: HCT-116 (IC50% μM)", "result": "1.4 ± 0.6", "unit": "µM"},
      {"measurement": "IC50", "setting": "[6]; read-out: HCT-116 (IC50% μg/ml)", "result": 0.8, "unit": "µg/mL"},
      {"measurement": "selectivity index to the cancer cells", "setting": "[6]; broad spectrum, cancer cells", "result": "greater than 2"}
    ]}
  ]
}
